# Experimental data as given in patent US20240277620A1, “MIXED SOLVENTS FOR SPRAY DRYING FOR PREPARATION OF AMORPHOUS SOLID DISPERSIONS” (Lonza Bend Inc., priority 2021, published 2024).
# Several values for one entry are separate records, joined by “and”; a condition that tells them apart may be missing. Equal values may be shown once.
# Assay: Determination of saturation concentration of drug in solvent (TGA of filtered saturated solution)
compound,measurement,setting,value
"O=C(O)c1cc(/N=N/c2ccc(S(=O)(=O)Nc3ccccn3)cc2)ccc1O [Sulfasalazine, sulfasalazine]",Solubility (wt %),"EtOAc/MeOH, MeOH 0 wt %",0.065 wt % and 0.091 wt %
same,Solubility (wt %),"EtOAc/MeOH, MeOH 15 wt %",0.500 wt %
same,Solubility (wt %),"EtOAc/MeOH, MeOH 20 wt %",0.430 wt %
same,Solubility (wt %),"EtOAc/MeOH, MeOH 30 wt %",0.847 wt %
same,Solubility (wt %),"EtOAc/MeOH, MeOH 35 wt %",0.593 wt %
same,Solubility (wt %),"EtOAc/MeOH, MeOH 45 wt %",1.028 wt %
same,Solubility (wt %),"EtOAc/MeOH, MeOH 50 wt %",0.497 wt %
same,Solubility (wt %),"EtOAc/MeOH, MeOH 60 wt %",0.878 wt %
same,Solubility (wt %),"EtOAc/MeOH, MeOH 65 wt %",0.481 wt %
same,Solubility (wt %),"EtOAc/MeOH, MeOH 80 wt %",0.370 wt %
same,Solubility (wt %),"EtOAc/MeOH, MeOH 85 wt %",0.532 wt %
same,Solubility (wt %),"EtOAc/MeOH, MeOH 100 wt %",0.153 wt % and 0.371 wt %
same,Concentration,"EtOAc:EtOH 0:100, 25° C.",1030 µg/mL
same,Concentration (wt %),"EtOAc:EtOH 0:100, 25° C.",0.130 wt %
same,Concentration,"EtOAc:EtOH 15:85, 25° C.",1740 µg/mL
same,Concentration (wt %),"EtOAc:EtOH 15:85, 25° C.",0.22 wt %
same,Concentration,"EtOAc:EtOH 40:60, 25° C.",2670 µg/mL
same,Concentration (wt %),"EtOAc:EtOH 40:60, 25° C.",0.321 wt %
same,Concentration,"EtOAc:EtOH 55:45, 25° C.",2890 µg/mL
same,Concentration (wt %),"EtOAc:EtOH 55:45, 25° C.",0.341 wt %
same,Concentration,"EtOAc:EtOH 70:30, 25° C.",3200 µg/mL
same,Concentration (wt %),"EtOAc:EtOH 70:30, 25° C.",0.370 wt %
same,Concentration,"EtOAc:EtOH 85:15, 25° C.",2170 µg/mL
same,Concentration (wt %),"EtOAc:EtOH 85:15, 25° C.",0.246 wt %
same,Concentration,"EtOAc:EtOH 100:0, 25° C.",360 µg/mL
same,Concentration (wt %),"EtOAc:EtOH 100:0, 25° C.",0.040 wt %
same,Solubility (wt %),"MeOAc/MeOH, MeOH 0 wt %",0.065 wt %
same,Solubility (wt %),"MeOAc/MeOH, MeOH 20 wt %",0.403 wt %
same,Solubility (wt %),"MeOAc/MeOH, MeOH 35 wt %",0.482 wt %
same,Solubility (wt %),"MeOAc/MeOH, MeOH 50 wt %",0.426 wt %
same,Solubility (wt %),"MeOAc/MeOH, MeOH 65 wt %",0.341 wt %
same,Solubility (wt %),"MeOAc/MeOH, MeOH 80 wt %",0.250 wt %
same,Solubility (wt %),"MeOAc/MeOH, MeOH 100 wt %",0.153 wt %
same,Concentration,"MeOAc:MeOH 0:100, 25° C.",1210 µg/mL
same,Concentration (wt %),"MeOAc:MeOH 0:100, 25° C.",0.153 wt %
same,Concentration,"MeOAc:MeOH 20:80, 25° C.",2220 µg/mL
same,Concentration (wt %),"MeOAc:MeOH 20:80, 25° C.",0.250 wt %
same,Concentration,"MeOAc:MeOH 35:65, 25° C.",2850 µg/mL
same,Concentration (wt %),"MeOAc:MeOH 35:65, 25° C.",0.341 wt %
same,Concentration,"MeOAc:MeOH 50:50, 25° C.",3650 µg/mL
same,Concentration (wt %),"MeOAc:MeOH 50:50, 25° C.",0.426 wt %
same,Concentration,"MeOAc:MeOH 65:35, 25° C.",4230 µg/mL
same,Concentration (wt %),"MeOAc:MeOH 65:35, 25° C.",0.482 wt %
same,Concentration,"MeOAc:MeOH 80:20, 25° C.",3630 µg/mL
same,Concentration (wt %),"MeOAc:MeOH 80:20, 25° C.",0.403 wt %
same,Concentration,"MeOAc:MeOH 100:0, 25° C.",610 µg/mL
same,Concentration (wt %),"MeOAc:MeOH 100:0, 25° C.",0.065 wt %
"Cc1cn(-c2cc(NC(=O)c3ccc(C)c(Nc4nccc(-c5cccnc5)n4)c3)cc(C(F)(F)F)c2)cn1 [Nilotinib, nilotinib]",Concentration,"EtOAc:EtOH 0:100, 25° C.",1690 µg/mL
same,Concentration (wt %),"EtOAc:EtOH 0:100, 25° C.",0.214 wt %
same,Concentration,"EtOAc:EtOH 15:85, 25° C.",2380 µg/mL
same,Concentration (wt %),"EtOAc:EtOH 15:85, 25° C.",0.30 wt %
same,Concentration,"EtOAc:EtOH 40:60, 25° C.",3400 µg/mL
same,Concentration (wt %),"EtOAc:EtOH 40:60, 25° C.",0.408 wt %
same,Concentration,"EtOAc:EtOH 55:45, 25° C.",4690 µg/mL
same,Concentration (wt %),"EtOAc:EtOH 55:45, 25° C.",0.518 wt %
same,Concentration,"EtOAc:EtOH 70:30, 25° C.",3390 µg/mL
same,Concentration (wt %),"EtOAc:EtOH 70:30, 25° C.",0.392 wt %
same,Concentration,"EtOAc:EtOH 85:15, 25° C.",2030 µg/mL
same,Concentration (wt %),"EtOAc:EtOH 85:15, 25° C.",0.230 wt %
same,Concentration,"EtOAc:EtOH 100:0, 25° C.",690 µg/mL
same,Concentration (wt %),"EtOAc:EtOH 100:0, 25° C.",0.076 wt %
same,Solubility (wt %),"MeOAc/MeOH, MeOH 0 wt %",0.091 wt %
same,Solubility (wt %),"MeOAc/MeOH, MeOH 15 wt %",0.496 wt %
same,Solubility (wt %),"MeOAc/MeOH, MeOH 30 wt %",0.763 wt %
same,Solubility (wt %),"MeOAc/MeOH, MeOH 45 wt %",0.962 wt %
same,Solubility (wt %),"MeOAc/MeOH, MeOH 60 wt %",0.868 wt %
same,Solubility (wt %),"MeOAc/MeOH, MeOH 85 wt %",0.486 wt %
same,Solubility (wt %),"MeOAc/MeOH, MeOH 100 wt %",0.371 wt %
same,Concentration,"MeOAc:MeOH 0:100, 25° C.",2940 µg/mL
same,Concentration (wt %),"MeOAc:MeOH 0:100, 25° C.",0.371 wt %
same,Concentration,"MeOAc:MeOH 15:85, 25° C.",3940 µg/mL
same,Concentration (wt %),"MeOAc:MeOH 15:85, 25° C.",0.486 wt %
same,Concentration,"MeOAc:MeOH 40:60, 25° C.",7320 µg/mL
same,Concentration (wt %),"MeOAc:MeOH 40:60, 25° C.",0.868 wt %
same,Concentration,"MeOAc:MeOH 55:45, 25° C.",8310 µg/mL
same,Concentration (wt %),"MeOAc:MeOH 55:45, 25° C.",0.961 wt %
same,Concentration,"MeOAc:MeOH 70:30, 25° C.",6760 µg/mL
same,Concentration (wt %),"MeOAc:MeOH 70:30, 25° C.",0.763 wt %
same,Concentration,"MeOAc:MeOH 85:15, 25° C.",4510 µg/mL
same,Concentration (wt %),"MeOAc:MeOH 85:15, 25° C.",0.496 wt %
same,Concentration,"MeOAc:MeOH 100:0, 25° C.",850 µg/mL
same,Concentration (wt %),"MeOAc:MeOH 100:0, 25° C.",0.091 wt %
